pIC50: −log10 of the molar value.
Columns and labels:
[1] = system: LNCap tumor cells; assay: tissue biodistribution study in LNCap xenograft mice; format: in vivo; conditions: 177Lu complex; for concentration in kidneys versus LNCap tumor cells: 4 hours post administration; for concentration in LNCap tumor cells versus kidney: 24 hours and 96 hours post administration; for change of concentration in kidney: later time intervals (24 and 96 hours)
Method: FIG. 2 is a graph of the tissue biodistribution of a ^111In analog of the compound of Example 3, in LNCap Xenograft mice.
FIGS. 1A and 1B illustrate results of a bio-distribution study in LNCap xenograft mice of a GUG-DOTA-^177Lu complex (compound (A)) and a GUL-DOTA-^177Lu complex (compound (B)) according to Formula II.
In contrast, the inventive compounds accumulate within tumor cells with only a slight decrease in intratumoral concentration observed after 96 hours.
FIG. 2 illustrates results of a bio-distribution study in LNCap xenograft mice using a GUL-DOTA-^111In complex and a hydrophobic aminohexanoic acid linker. […] The inventors hypothesize that the low biodistribution of MIP-1450 LNCap tumor cells may be due to this compounds low affinity for PSMA expressed on the surface of LNCap cells. As stated above, it was unexpectedly that presence of carboxylic acid groups in the linker region increased affinity of Formula I compounds for PSMA. This increase in binding affinity is due, at least in part to additional cooperative binding interactions of the free carboxylic acid groups with amino acid residues of PSMA. Illustrative of Formula I compound-radionuclide complexes that have one or more carboxylic acid groups as part of the linker group include without limitation the following compounds: […]

[2] = target: T1, PSMA (Homo sapiens, UniProt Q04609); assay: competitive binding assay against 123I-DCIT in PSMA positive LNCaP cells; conditions: Lu complexes; competition with 3 nM 123I DCIT on LNCaP cells, 1 hour at room temperature
T1 construct: host or cells: LNCaP human prostate cancer cells
Method: The compounds of Formula I or Formula II were screened in a human prostate cancer cell binding assay using PSMA positive (+), LnCap cells.
Briefly, LNCaP and PC3 human prostate cancer cells were obtained from American Type Culture Collection, Rockville, Md. LNCaP cells were maintained in RPMI-1640 medium supplemented with 10% fetal bovine serum (FBS). Binding of the radiolabeled compound and competition with cold derivatives to LNCaP cells was performed according to published methods. Cells were plated in 12-well plates at approximately 4×10^5 cells/well and incubated for 48 hours in a humidified incubator at 37° C./5% carbon dioxide prior to addition of compound. Solutions of the Formula I or Formula II compounds were prepared and diluted in serum-free cell culture medium containing 0.5% bovine serum albumin (BSA) in combination with 3 nM ^123I DCIT (known inhibitor). Total binding was determined by incubating ^123I-DCIT without test compound. Plates were incubated at room temperature for 1 hour. Cells were removed from the plates and transferred to eppendorff tubes. Samples were microcentrifuged for 15 seconds at 10K×g. The medium was aspirated and the pellet was washed twice by dispersal in fresh assay medium followed by microcentrifugation. Cell binding of ^123I DCIT was determined by counting the cell pellet in an automated gamma counter. Nonspecific binding was determined as the counts associated with the cells after incubating with 2 uM nonradiolabeled compound or 2-phosphonomethyl-pentanedioic acid (PMPA). Table 3 illustrates the IC50 values of representative Formula II complexes.

T1 sequence (Q04609 whole entry): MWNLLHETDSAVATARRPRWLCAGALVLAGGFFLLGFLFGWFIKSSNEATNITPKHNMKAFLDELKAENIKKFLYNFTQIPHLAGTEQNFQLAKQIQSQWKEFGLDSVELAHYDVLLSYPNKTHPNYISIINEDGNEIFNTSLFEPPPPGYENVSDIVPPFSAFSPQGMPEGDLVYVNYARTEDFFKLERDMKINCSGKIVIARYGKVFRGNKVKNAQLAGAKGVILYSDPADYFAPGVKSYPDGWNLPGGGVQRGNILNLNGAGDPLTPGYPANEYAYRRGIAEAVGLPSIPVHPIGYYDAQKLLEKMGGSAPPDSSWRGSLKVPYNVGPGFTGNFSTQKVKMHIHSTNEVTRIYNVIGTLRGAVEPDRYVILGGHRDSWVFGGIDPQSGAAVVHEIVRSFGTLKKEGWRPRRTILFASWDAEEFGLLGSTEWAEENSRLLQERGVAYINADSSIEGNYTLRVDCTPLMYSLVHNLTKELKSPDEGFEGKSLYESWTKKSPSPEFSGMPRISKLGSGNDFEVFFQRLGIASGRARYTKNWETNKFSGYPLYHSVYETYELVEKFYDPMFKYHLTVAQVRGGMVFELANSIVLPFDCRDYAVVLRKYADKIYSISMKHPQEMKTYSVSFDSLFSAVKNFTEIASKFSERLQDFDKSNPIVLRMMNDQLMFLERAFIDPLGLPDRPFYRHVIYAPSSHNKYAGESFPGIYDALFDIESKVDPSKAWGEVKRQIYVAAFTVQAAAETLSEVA

Row | Compound | pIC50 [2] | further results
1 | O=C(O)CC[C@H](NC(=O)N[C@@H](CCCCNC(=O)[C@H](Cc1ccc2ccccc2c1)NC(=O)CCCCCNC(=S)Nc1ccc(CC2CN(CC(=O)O)CCN(CC(=O)O)CCN(CC(=O)O)CCN2CC(=O)O)cc1)C(=O)O)C(=O)O.[177Lu] (stereo partly drawn) [B, ^177Lu-complex of (10S,17S,21S)-10-(naphthalen-2-ylmethyl)-8,11,19-trioxo-1-((4-((1,4,7,10-tetrakis(carboxymethyl)-1,4,7,10-tetraazacyclododecan-2-yl)methyl)phenyl)amino)-1-thioxo-2,9,12,18,20-pentaazatricosane-17,21,23-tricarboxylic acid] |  | concentration in kidneys versus LNCap tumor cells [1]: concentrate to a greater extent in the kidneys than LNCap tumor cells; concentration in LNCap tumor cells versus kidney [1]: the concentration is greater in LNCap tumor cells than kidney; change of concentration in kidney [1]: significant reduction
2 | (10S,17S,21S)-10-(2-carboxyethyl)-8,11,19-trioxo-1-((4-((1,4,7,10-tetrakis(carboxymethyl)-1,4,7,10-tetraazacyclododecan-2-yl)methyl)phenyl)amino)-1-thioxo-2,9,12,18,20-pentaazatricosane-17,21,23-tricarboxylate Lu complex [Lu-MIP-1523] | 7.27 | 
3 | (11S,16S,20S)-11-(2-carboxyethyl)-10,13,18-trioxo-1-((4-((1,4,7,10-tetrakis(carboxymethyl)-1,4,7,10-tetraazacyclododecan-2-yl)methyl)phenyl)amino)-1-thioxo-2,9,12,17,19-pentaazadocosane-16,20,22-tricarboxylate Lu complex [Lu-MIP-1519] | 7.92 | 
4 | (13S,17S)-10,15-dioxo-1-((4-((1,4,7,10-tetrakis(carboxymethyl)-1,4,7,10-tetraazacyclododecan-2-yl)methyl)phenyl)amino)-1-thioxo-2,9,14,16-tetraazanonadecane-13,17,19-tricarboxylate Lu complex [Lu-MIP-1526] | 7.11 | 
5 | (16S,20S)-10,18-dioxo-1-((4-((1,4,7,10-tetrakis(carboxymethyl)-1,4,7,10-tetraazacyclododecan-2-yl)methyl)phenyl)amino)-1-thioxo-2,11,17,19-tetraazadocosane-16,20,22-tricarboxylate Lu complex [Lu-MIP-1512] | 7.64 | 
6 | ^177Lu-complex of (11S,16S,20S)-11-(2-carboxyethyl)-10,13,18-trioxo-1-((4-((1,4,7,10-tetrakis(carboxymethyl)-1,4,7,10-tetraazacyclododecan-2-yl)methyl)phenyl)amino)-1-thioxo-2,9,12,17,19-pentaazadocosane-16,20,22-tricarboxylate |  | concentration in kidneys versus LNCap tumor cells [1]: concentrate to a greater extent in the kidneys than LNCap tumor cells; concentration in LNCap tumor cells versus kidney [1]: the concentration is greater in LNCap tumor cells than kidney; change of concentration in kidney [1]: significant reduction

Further lines, with some results ahead:

Row | pIC50 [2] | Compound | further results
7 | 7.55 | (3S,7S,14S,17S)-14-benzyl-5,13,16-trioxo-17-(6-(3-(4-((S)-1,4,7,10-tetrakis(carboxymethyl)-1,4,7,10-tetraazacyclododecan-2-yl)methyl)phenyl)thioureido)hexanamido)-4,6,12,15-tetraazanonadecane-1,3,7,19-tetracarboxylate Lu complex [Lu-MIP-1531] | 
8 | 7.66 | (10S,13S,20S,24S)-13-(2-carboxyethyl)-10-(4-fluorobenzyl)-8,11,14,22-tetraoxo-1-((4-((1,4,7,10-tetrakis(carboxymethyl)-1,4,7,10-tetraazacyclododecan-2-yl)methyl)phenyl)amino)-1-thioxo-2,9,12,15,21,23-hexaazahexacosane-20,24,26-tricarboxylate Lu complex [Lu-MIP-1550] | 
9 | 7.82 | (10S,17S,21S)-10-(4-fluorobenzyl)-8,11,19-trioxo-1-((4-((1,4,7,10-tetrakis(carboxymethyl)-1,4,7,10-tetraazacyclododecan-2-yl)methyl)phenyl)amino)-1-thioxo-2,9,12,18,20-pentaazatricosane-17,21,23-tricarboxylate Lu complex [Lu-MIP-1546] | 
10 | 8.00 | (10S,17S,21S)-10-(naphthalen-2-ylmethyl)-8,11,19-trioxo-1-((4-((1,4,7,10-tetrakis(carboxymethyl)-1,4,7,10-tetraazacyclododecan-2-yl)methyl)phenyl)amino)-1-thioxo-2,9,12,18,20-pentaazatricosane-17,21,23-tricarboxylate Lu complex [Lu-MIP-1545] | 
11 | 7.68 | (10S,17S,21S)-10-benzyl-8,11,19-trioxo-1-((4-((1,4,7,10-tetrakis(carboxymethyl)-1,4,7,10-tetraazacyclododecan-2-yl)methyl)phenyl)amino)-1-thioxo-2,9,12,18,20-pentaazatricosane-17,21,23-tricarboxylate-Lu complex [Lu-MIP-1530] | 
12 | 7.11 | (11S,16S,20S)-11-benzyl-10,13,18-trioxo-1-((4-((1,4,7,10-tetrakis(carboxymethyl)-1,4,7,10-tetraazacyclododecan-2-yl)methyl)phenyl)amino)-1-thioxo-2,9,12,17,19-pentaazadocosane-16,20,22-tricarboxylate Lu complex [Lu-MIP-1548] | 

— patent US8926944B2, “Radiolabeled prostate specific membrane antigen inhibitors” (Molecular Insight Pharmaceuticals, priority 2011, dated 2015)
